Assay results: patent publication US12692269B2, “Therapeutic compounds” (Genentech, Inc., priority 2019, dated 2026)
pEC50: −log10 of the molar value.

Key:
Assay type in all cases: binding
[1] = molecular target: TEAD4 TAZ (amino acids 13-57) (Homo sapiens, UniProt Q15561); test: TEAD4-TAZ HTRF (TR-FRET) protein-protein interaction assay; details: for TEAD4 TAZ HTRF combined: Max % Inhibition: TEAD4, TAZ peptide; for pEC50: TEAD4-TAZ HTRF, TR-FRET 665 nm/615 nm, read-out: TEAD4 TAZ HTRF combined: EC50
How it was run: (§1)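 Read-out is the TR-FRET 665 nm/615 nm ratio, which falls when compound disrupts TEAD binding to YAP (aa 50-100) or TAZ (aa 13-57) peptide. Eu anti-His-labelled His-TEAD (aa 217-447) saw compound for 30 min, then peptide/streptavidin-XL665 for 60 min, room temperature.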

[2] = molecular target: TEAD3 TAZ (amino acids 13-57) (Homo sapiens, UniProt Q99594); test: TEAD3-TAZ HTRF (TR-FRET) protein-protein interaction assay; details: for TEAD3 TAZ HTRF combined: Max % Inhibition: TEAD3, TAZ peptide; for pEC50: TEAD3-TAZ HTRF, TR-FRET 665 nm/615 nm, read-out: TEAD3 TAZ HTRF combined: EC50
How it was run: as §1

[3] = molecular target: TEAD1 YAP50-100 (Homo sapiens, UniProt P28347); test: TEAD1-YAP HTRF (TR-FRET) protein-protein interaction assay; details: TEAD1, YAP peptide 50-100, HTRF; for pEC50: read-out: TEAD1 YAP50-100 HTRF combined: EC50
How it was run: as §1

[4] = molecular target: TEAD2 TAZ (amino acids 13-57) (Homo sapiens, UniProt Q15562); test: TEAD2-TAZ HTRF (TR-FRET) protein-protein interaction assay; details: for TEAD2 TAZ HTRF combined: Max % Inhibition: TEAD2, TAZ peptide; for pEC50: TEAD2-TAZ HTRF, TR-FRET 665 nm/615 nm, read-out: TEAD2 TAZ HTRF combined: EC50
How it was run: as §1

[5] = molecular target: TEAD4 YAP50-100 (Homo sapiens, UniProt Q15561); test: TEAD4-YAP HTRF (TR-FRET) protein-protein interaction assay; details: TEAD4, YAP peptide 50-100, HTRF; for pEC50: read-out: TEAD4 YAP50-100 HTRF combined: EC50
How it was run: as §1

[6] = molecular target: TEAD1 TAZ (amino acids 13-57) (Homo sapiens, UniProt P28347); test: TEAD1-TAZ HTRF (TR-FRET) protein-protein interaction assay; details: for TEAD1 TAZ HTRF combined: Max % Inhibition: TEAD1, TAZ peptide; for pEC50: TEAD1-TAZ HTRF, TR-FRET 665 nm/615 nm, read-out: TEAD1 TAZ HTRF combined: EC50
How it was run: as §1

[7] = molecular target: TEAD3 YAP50-100 (Homo sapiens, UniProt Q99594); test: TEAD3-YAP HTRF (TR-FRET) protein-protein interaction assay; details: TEAD3, YAP peptide 50-100, HTRF; for pEC50: read-out: TEAD3 YAP50-100 HTRF combined: EC50
How it was run: as §1

[8] = molecular target: TEAD2 YAP50-100 (Homo sapiens, UniProt Q15562); test: TEAD2-YAP HTRF (TR-FRET) protein-protein interaction assay; details: TEAD2, YAP peptide 50-100, HTRF; for pEC50: read-out: TEAD2 YAP50-100 HTRF combined: EC50
How it was run: as §1

TEAD1 YAP50-100, sequence (P28347 167-426 limits assumed): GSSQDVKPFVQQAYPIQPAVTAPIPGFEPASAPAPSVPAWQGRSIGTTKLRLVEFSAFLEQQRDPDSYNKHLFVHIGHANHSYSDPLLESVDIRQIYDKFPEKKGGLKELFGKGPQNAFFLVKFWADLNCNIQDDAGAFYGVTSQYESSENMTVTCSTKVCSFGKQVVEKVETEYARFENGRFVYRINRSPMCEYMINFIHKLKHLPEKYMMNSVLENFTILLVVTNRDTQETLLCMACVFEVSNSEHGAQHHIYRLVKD
TEAD1 TAZ (amino acids 13-57), sequence (P28347 167-426 limits assumed): as above
TEAD3 TAZ (amino acids 13-57), sequence (Q99594 173-435 limits assumed): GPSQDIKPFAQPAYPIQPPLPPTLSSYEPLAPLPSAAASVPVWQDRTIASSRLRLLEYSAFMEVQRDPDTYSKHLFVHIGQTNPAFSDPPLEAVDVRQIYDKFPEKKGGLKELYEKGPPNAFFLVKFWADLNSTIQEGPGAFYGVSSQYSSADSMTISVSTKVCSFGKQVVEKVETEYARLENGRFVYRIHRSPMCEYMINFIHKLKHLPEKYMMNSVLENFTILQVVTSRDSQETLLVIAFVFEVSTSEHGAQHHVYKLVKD
TEAD3 YAP50-100, sequence (Q99594 173-435 limits assumed): as above
TEAD2 TAZ (amino acids 13-57), sequence (Q15562 217-447): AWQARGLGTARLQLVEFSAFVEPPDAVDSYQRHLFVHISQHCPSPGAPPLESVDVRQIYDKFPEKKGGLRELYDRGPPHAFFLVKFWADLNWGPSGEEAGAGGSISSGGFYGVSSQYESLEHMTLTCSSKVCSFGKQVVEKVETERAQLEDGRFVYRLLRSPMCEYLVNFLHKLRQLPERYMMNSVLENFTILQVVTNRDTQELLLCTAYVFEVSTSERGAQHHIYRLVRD
TEAD2 YAP50-100, sequence (Q15562 217-447): as above
TEAD4 TAZ (amino acids 13-57), sequence (Q15561 217-434 limits assumed): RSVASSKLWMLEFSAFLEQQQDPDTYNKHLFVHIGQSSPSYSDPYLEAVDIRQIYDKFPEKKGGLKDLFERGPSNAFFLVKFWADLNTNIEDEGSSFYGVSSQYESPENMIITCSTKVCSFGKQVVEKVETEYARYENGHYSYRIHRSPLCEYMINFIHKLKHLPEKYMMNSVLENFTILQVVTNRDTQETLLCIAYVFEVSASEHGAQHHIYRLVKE
TEAD4 YAP50-100, sequence (Q15561 217-434 limits assumed): as above

SMILES | TEAD4 TAZ HTRF combined: Max % Inhibition [1] | pEC50 [1] | TEAD3 TAZ HTRF combined: Max % Inhibition [2] | pEC50 [2] | TEAD1 YAP50-100 HTRF combined: Max % Inhibition [3] | pEC50 [3] | TEAD2 TAZ HTRF combined: Max % Inhibition [4] | pEC50 [4] | TEAD4 YAP50-100 HTRF combined: Max % Inhibition [5] | pEC50 [5] | TEAD1 TAZ HTRF combined: Max % Inhibition [6] | pEC50 [6] | TEAD3 YAP50-100 HTRF combined: Max % Inhibition [7] | pEC50 [7] | TEAD2 YAP50-100 HTRF combined: Max % Inhibition [8] | pEC50 [8]
Cc1nccnc1-c1nn2c(=O)cc(-c3ccc(C4(F)CCCCC4)cc3)[nH]c2c1C(=O)N1CC(CF)C1 [Compound 59, 5-(4-(1-Fluorocyclohexyl)phenyl)-3-(3-(fluoromethyl)azetidine-1-carbonyl)-2-(3-methylpyrazin-2-yl)pyrazolo[1,5-a]pyrimidin-7(4H)-one] | 42.5% | 6.74 | 59.0% | 6.47 | 68.0% | 6.80 | 61.0% | 7.52 | 40.0% | 6.74 | 65.5% | 6.80 | 65.5% | 6.54 | 61.5% | 7.52
Cc1nccnc1-c1nn2c(=O)cc(-c3ccc(-c4ccccc4)cc3)[nH]c2c1C(=O)N1CC(CF)C1 [Compound 60, 5-([1,1′-Biphenyl]-4-yl)-3-(3-(fluoromethyl)azetidine-1-carbonyl)-2-(3-methylpyrazin-2-yl)pyrazolo[1,5-a]pyrimidin-7(4H)-one] | 64.0% | 6.29 | 74.0% | 6.66 | 80.0% | 7.52 | 66.5% | 8.00 | 60.0% | 6.21 | 78.5% | 7.40 | 78.0% | 6.70 | 66.5% | 8.00
Cc1nccnc1-c1nn2c(=O)cc(-c3ccc(O[C@@H](c4ccccc4)C(F)(F)F)cc3)[nH]c2c1C(=O)N1CC(CF)C1 [Compound 67, (S)-3-(3-(Fluoromethyl)azetidine-1-carbonyl)-2-(3-methylpyrazin-2-yl)-5-(4-(2,2,2-trifluoro-1-phenylethoxy)phenyl)pyrazolo[1,5-a]pyrimidin-7(4H)-one] | 71.5% | 5.40 | 71.0% | 6.70 | 69.0% | 6.72 | 89.0% | 7.30 | 72.5% | 5.37 | 65.0% | 6.66 | 79.0% | 6.74 | 92.5% | 7.30
Cc1nccnc1-c1nn2c(=O)cc(-c3ccc(O[C@H](c4ccccc4)C(F)(F)F)cc3)[nH]c2c1C(=O)N1CC(CF)C1 [Compound 68, (R)-3-(3-(Fluoromethyl)azetidine-1-carbonyl)-2-(3-methylpyrazin-2-yl)-5-(4-(2,2,2-trifluoro-1-phenylethoxy)phenyl)pyrazolo[1,5-a]pyrimidin-7(4H)-one] | 61.5% | 5.31 | 64.5% | 6.23 | 65.0% | 6.72 | 75.5% | 7.22 | 64.5% | 5.26 | 63.0% | 6.57 | 67.5% | 6.29 | 84.0% | 7.22
CCCCCCC/C=C/c1cc(=O)n2nc(-c3nccnc3C)c(C(=O)N3C[C@H](CF)[C@@H]3C)c2[nH]1 [Compound 70, 3-((2S,3S)-3-(fluoromethyl)-2-methylazetidine-1-carbonyl)-2-(3-methylpyrazin-2-yl)-5-((E)-non-1-en-1-yl)pyrazolo[1,5-a]pyrimidin-7(4H)-one] | 63.5% | 6.01 | 52.5% | 7.52 | 58.0% | 8.00 | 66.0% | 8.00 | 58.0% | 5.89 | 54.5% | 7.70 | 64.0% | 7.40 | 67.0% | 

The next compounds have a higher pEC50 [1] than those just listed; values first:

TEAD4 TAZ HTRF combined: Max % Inhibition [1] | pEC50 [1] | TEAD3 TAZ HTRF combined: Max % Inhibition [2] | pEC50 [2] | TEAD1 YAP50-100 HTRF combined: Max % Inhibition [3] | pEC50 [3] | TEAD2 TAZ HTRF combined: Max % Inhibition [4] | pEC50 [4] | TEAD4 YAP50-100 HTRF combined: Max % Inhibition [5] | pEC50 [5] | TEAD1 TAZ HTRF combined: Max % Inhibition [6] | pEC50 [6] | TEAD3 YAP50-100 HTRF combined: Max % Inhibition [7] | pEC50 [7] | TEAD2 YAP50-100 HTRF combined: Max % Inhibition [8] | pEC50 [8] | SMILES
35.0% | 7.70 | 43.0% | 6.96 | 57.0% | 7.22 | 60.0% | 8.00 | 33.0% | 7.52 | 57.0% | 7.15 | 49.5% | 7.00 | 61.0% | 8.00 | Cc1nccnc1-c1nn2c(=O)cc(-c3ccc(C(F)(F)C4CCCC4)cc3)[nH]c2c1C(=O)N1CC(CF)C1 [Compound 56, 5-(4-(Cyclopentyldifluoromethyl)phenyl)-3-(3-(fluoromethyl)azetidine-1-carbonyl)-2-(3-methylpyrazin-2-yl)pyrazolo[1,5-a]pyrimidin-7(4H)-one]
54.5% | 7.22 | 50.5% | 7.05 | 56.0% | 7.10 | 53.5% | 8.00 | 35.0% | 7.15 | 46.5% | 7.15 | 53.0% | 7.00 | 51.0% | 7.70 | O=C(c1c(-c2ncccn2)nn2c(=O)cc(-c3ccc(C4(C5CCCC5)CC4)cc3)[nH]c12)N1CC(CF)C1 [Compound 57, 5-(4-(1-Cyclopentylcyclopropyl)phenyl)-3-(3-(fluoromethyl)azetidine-1-carbonyl)-2-(pyrimidin-2-yl)pyrazolo[1,5-a]pyrimidin-7(4H)-one]
68.5% | 6.85 | 58.5% | 7.00 | 71.0% | 7.40 | 66.5% | 8.00 | 59.0% | 6.74 | 70.5% | 7.40 | 64.5% | 7.05 | 63.0% | 8.00 | CCCCc1ccc(-c2cc(=O)n3nc(-c4nccnc4C)c(C(=O)N4CC(CF)C4)c3[nH]2)cc1 [Compound 58, 5-(4-Butylphenyl)-3-(3-(fluoromethyl)azetidine-1-carbonyl)-2-(3-methylpyrazin-2-yl)pyrazolo[1,5-a]pyrimidin-7(4H)-one]
65.5% | 6.89 | 75.5% | 6.92 | 79.0% | 7.40 | 75.5% | 8.00 | 62.5% | 6.77 | 73.5% | 7.30 | 80.0% | 6.96 | 76.0% | 8.00 | Cc1nccnc1-c1nn2c(=O)cc(-c3ccc(C4CCCC4)cc3)[nH]c2c1C(=O)N1C[C@H](CF)[C@@H]1C [Compound 69, 5-(4-Cyclopentylphenyl)-3-((2S,3S)-3-(fluoromethyl)-2-methylazetidine-1-carbonyl)-2-(3-methylpyrazin-2-yl)pyrazolo[1,5-a]pyrimidin-7(4H)-one]
